This is an account of results in BindingDB's records for patent US11440899 (Merck Patent GmbH, 2022).

Usually IC50 stands for the concentration that gives 50% inhibition. A lower IC50 goes with greater potency.

Assay [1] addresses T1, Serine/threonine-protein kinase TBK1 (Homo sapiens, UniProt Q9UHD2).
T1 sequence (Q9UHD2 whole entry): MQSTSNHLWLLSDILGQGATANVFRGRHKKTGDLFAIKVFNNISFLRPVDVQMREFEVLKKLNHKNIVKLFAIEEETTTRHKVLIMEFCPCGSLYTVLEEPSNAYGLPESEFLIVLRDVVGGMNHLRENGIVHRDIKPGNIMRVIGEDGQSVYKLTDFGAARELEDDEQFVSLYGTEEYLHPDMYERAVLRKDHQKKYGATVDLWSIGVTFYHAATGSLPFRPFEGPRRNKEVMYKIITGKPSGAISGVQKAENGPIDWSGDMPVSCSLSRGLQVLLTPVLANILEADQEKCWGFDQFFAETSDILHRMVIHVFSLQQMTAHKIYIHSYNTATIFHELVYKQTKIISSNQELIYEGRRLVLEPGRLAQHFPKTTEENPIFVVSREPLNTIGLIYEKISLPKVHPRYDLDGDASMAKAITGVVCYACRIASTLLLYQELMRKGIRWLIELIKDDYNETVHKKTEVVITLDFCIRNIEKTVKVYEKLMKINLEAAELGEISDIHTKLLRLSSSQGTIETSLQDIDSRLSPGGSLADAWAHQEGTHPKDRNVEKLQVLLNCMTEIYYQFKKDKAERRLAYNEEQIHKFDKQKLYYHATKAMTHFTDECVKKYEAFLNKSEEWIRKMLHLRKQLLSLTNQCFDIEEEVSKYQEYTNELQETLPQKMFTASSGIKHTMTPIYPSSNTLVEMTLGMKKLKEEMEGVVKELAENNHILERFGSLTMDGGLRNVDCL
The assay can be described thus: TBK Biochemical Assay. As for the experimental part: (§1) Test compounds were transferred into Labcyte polypropylene 384 well plates (P055-25) and diluted to 3 mM using DMSO. 3 mM test compounds were dispensed using Labcyte ECHO dose response module into Greiner 784075 plates (columns 3-12 and 13-22, 10 point 1:4) so that high concentration was 30 uM final. 100 uM of a reference compound (1 uM final high concentration). Backfilling was performed if necessary so that all wells contain 1% DMSO final:add 75 nl DMSO/well into columns 1, 2 and 24 using Labcyte Echo.add 75 nl 1.0 mM staurosporine/well into column 23 using Labcyte Echo (10 uM final)add 4.5 ul enzyme/well using multidrop dispenseradd 3 ul substrate/well using multidrop dispenserincubate at 25° C. in Heidolph incubator for 90 min.add 7.5 ul 2× stop buffer using multidrop dispenserread on labchip ez reader II using TBK1.jobRaw data files were opened in the Caliper LabChip Reviewer program (Version 3.0.265.0 SP2) and peak assignments were adjusted to reflect substrate first with the software's post-run analysis options. A spline-fit baseline was applied using the software's analysis algorithm.

The target in assay [2] is T2, Inhibitor of nuclear factor kappa-B kinase subunit epsilon (Homo sapiens, UniProt Q14164).
T2 sequence (Q14164 whole entry): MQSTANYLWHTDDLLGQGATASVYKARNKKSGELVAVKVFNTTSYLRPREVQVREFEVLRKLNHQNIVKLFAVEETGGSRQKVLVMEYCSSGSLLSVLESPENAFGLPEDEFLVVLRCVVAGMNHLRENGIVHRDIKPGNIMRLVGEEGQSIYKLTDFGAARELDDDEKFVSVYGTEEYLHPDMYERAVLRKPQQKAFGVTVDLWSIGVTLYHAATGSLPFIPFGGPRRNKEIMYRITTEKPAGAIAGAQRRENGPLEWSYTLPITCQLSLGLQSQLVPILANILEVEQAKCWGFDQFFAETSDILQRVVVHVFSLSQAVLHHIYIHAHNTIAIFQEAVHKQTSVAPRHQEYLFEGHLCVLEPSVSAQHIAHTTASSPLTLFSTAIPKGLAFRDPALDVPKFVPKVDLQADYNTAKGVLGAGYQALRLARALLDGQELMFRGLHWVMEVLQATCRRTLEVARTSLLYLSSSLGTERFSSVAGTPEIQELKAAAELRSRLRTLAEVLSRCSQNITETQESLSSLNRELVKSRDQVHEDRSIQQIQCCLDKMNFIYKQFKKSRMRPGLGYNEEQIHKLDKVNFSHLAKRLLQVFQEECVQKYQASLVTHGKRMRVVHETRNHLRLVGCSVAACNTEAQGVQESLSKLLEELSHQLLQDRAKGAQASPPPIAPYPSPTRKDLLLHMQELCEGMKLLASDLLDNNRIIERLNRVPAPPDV
The assay can be described thus: IKKe Biochemical Assay. As for the experimental part: as §1, with “C.” for “C. in Heidolph incubator”, “bufferread” for “buffer using multidrop dispenserread”, “IKKε. jobRaw” for “TBK1.jobRaw”

`COc1nc(Nc2cc(-c3ccc(O[C@@H]4CCN(C(=O)[C@@H](C)O)CC4(F)F)c(C#N)c3)ncn2)ccc1N1CCN(C2COC2)CC1` [US11440899, Example 96]: the IC50 in assay [1] and in assay [2] was less than 100 nM throughout.
